This passage reports IC50 results from patent publication US20080176866A1, “NOVEL HETARYL-PHENYLENEDIAMINE-PYRIMIDINES AS PROTEIN KINASE INHIBITORS” (priority 2006, published 2008).

Assay [1] concerns the target T1, CDK1/CycB (Homo sapiens, UniProt P06493).
T1 construct: GST; purchased ProQinase GmbH, Freiburg; host or cells: baculovirus-infected insect cells (Sf9)
The assay is described as follows: CDK1/CycB kinase assay. Type of assay: biochemical. The conditions noted are these: 0.5 μM ATP, histone IIIS, 33P filter assay. The method, then: Recombinant CDK1- and CycB-GST fusion proteins, purified from baculovirus-infected insect cells (Sf9), were purchased from ProQinase GmbH, Freiburg. The histone IIIS used as kinase substrate can be purchased from Sigma.
CDK1/CycB (5 ng/μL) was incubated in the presence of various concentrations of test substances (0 μM, and within the range 0.01-100 μM) in 40 μL of assay buffer [50 mM Tris/HCl pH 8.0, 10 mM MgCl2, 0.1 mM Na ortho-vanadate, 1.0 mM dithiothreitol, 0.025% PEG 20000, 0.5 μM ATP, 10 μM histone IIIIS, 0.2 μCi/measurement point ^33P-gamma ATP, 0.05% NP40, 1.25% dimethyl sulphoxide] at 22° C. for 10 min. The reaction was stopped by adding EDTA solution (250 mM, pH 8.0, 15 μl/measurement point).
15 μl of each reaction mixture were loaded onto P30 filter strips (from Wallac), and non-incorporated ^33P-ATP was removed by washing the filter strips three times in 0.5% strength phosphoric acid for 10 min each time. After the filter strips had been dried at 70° C. for 1 hour, the filter strips were covered with scintillator strips (MeltiLex™ A, from Wallac) and baked at 90° C. for 1 hour. The amount of incorporated ^33P (substrate phosphorylation) was determined by scintillation measurement in a gamma radiation counter (Wallac).
The measured data were normalized to 0% inhibition (enzyme reaction without inhibitor) and 100% inhibition (all assay components except enzyme). The IC50 values were determined by means of a 4-parameter fit using the company's own software.

Assay [2] concerns the target T2, KDR kinase (Homo sapiens, UniProt P35968).
T2 construct: GST; purchased ProQinase GmbH, Freiburg; host or cells: baculovirus-infected insect cells (Sf9)
The assay is described as follows: KDR kinase assay (HTRF). Type of assay: biochemical. The conditions noted are these: KDR kinase-GST, 10 μM ATP. The method, then: The KDR-inhibitory activity of the substances of this invention was measured in the KDR-HTRF assay (HTRF=Homogeneous Time Resolved Fluorescence) described in the following paragraphs.
Recombinant KDR kinase-GST fusion protein purified from baculovirus-infected insect cells (Sf9) was purchased from ProQinase GmbH, Freiburg. The substrate used for the kinase reaction was the biotinylated peptide biotin-Ahx-DFGLARDMYDKEYYSVG (C terminus in acid form) which can be purchased for example from Biosynthan GmbH (Berlin-Buch, Germany).
KDR kinase was incubated in the presence of various concentrations of test substances in 5 μL of assay buffer [50 mM Hepes/NaOH pH 7.0, 25 mM MgCl2, 5 mM MnCl2, 1.0 mM dithiothreitol, 0.1 mM sodium orthovanadate, 10 μM adenosine triphosphate (ATP), 0.5 μM substrate, 0.001% (v/v) Nonidet-P40 (Sigma), 1% (v/v) dimethyl sulphoxide] at 22° C. for 45 min. The concentration of KDR was adapted to the particular activity of the enzyme and adjusted so that the assay operated in the linear range. The reaction was stopped by adding 5 μl of a solution of HTRF detection reagents (0.1 μM streptavidin-XLent and 2 nM PT66-Eu chelate, a Europium chelate-labelled anti-phospho-tyrosine antibody from Perkin Elmer) in aqueous EDTA solution (125 mM EDTA, 0.2% (w/v) bovine serum albumin (BSA) in 50 mM HEPES/NaOH pH 7.0).
The resulting mixture was incubated at 22° C. for 1 h in order to allow formation of the biotinylated phosphorylated substrate and the streptavidin-XLent and PT66-Eu chelate. The amount of phosphorylated substrate was then estimated by measuring the resonance energy transfer from the PT66-Eu chelate to the streptavidin-XLent. For this purpose, the fluorescence emissions at 620 nm and 665 nm after excitation at 350 nm were measured in an HTRF measuring instrument, e.g. a Rubystar (BMG Labtechnologies, Offenburg, Germany) or a Viewlux (Perkin-Elmer). The ratio of the emissions at 665 nm and at 622 nm was taken as a measure of the amount of phosphorylated substrate. The data were normalized (enzymic reaction without inhibitor=0% inhibition, all other assay components but no enzyme=100% inhibition) and IC50 values were calculated with a 4-parameter fit using an inhouse software.

Assay [3] relates to human MCF7 breast tumour cells. The assay is described as follows: MCF7 proliferation assay. Type of assay: cell-based. The conditions noted are these: 96 h, 4 days incubation, crystal violet staining. The method, then: Cultivated human MCF7 breast tumour cells (ATCC HTB-22) were plated out in a density of 5000 cells/measurement point in 200 μl of growth medium (RPMI1640, 10% foetal calf serum, 2 mU/mL insulin, 0.1 nM oestradiol) in a 96-well multititre plate. After 24 hours, the cells from a plate (zero plate) were stained with crystal violet (see below), while the medium in the other plates was replaced by fresh culture medium (200 μl) to which the test substances had been added in various concentrations (0 μM, and in the range 0.01-30 μM; the final concentration of the solvent dimethyl sulphoxide was 0.5%). The cells were incubated in the presence of the test substances for 4 days. The cell proliferation was determined by staining the cells with crystal violet: the cells were fixed by adding 20 μl/measurement point of an 11% strength glutaraldehyde solution at room temperature for 15 min. After the fixed cells had been washed three times with water, the plates were dried at room temperature. The cells were stained by adding 100 μl/measurement point of a 0.1% strength crystal violet solution (pH adjusted to pH 3 by adding acetic acid). After the stained cells had been washed three times with water, the plates were dried at room temperature. The dye was dissolved by adding 100 μl/measurement point of a 10% strength acetic acid solution, and the extinction was determined by photometry at a wavelength of 595 nm. The percentage change in cell growth was calculated by normalizing the measurements to the extinctions of the zero point plate (=0%) and the extinction of the untreated (0 μM) cells (=100%). The IC50 values were determined by means of a 4-parameter fit using the company's own software.

T1 sequence (P06493 whole entry): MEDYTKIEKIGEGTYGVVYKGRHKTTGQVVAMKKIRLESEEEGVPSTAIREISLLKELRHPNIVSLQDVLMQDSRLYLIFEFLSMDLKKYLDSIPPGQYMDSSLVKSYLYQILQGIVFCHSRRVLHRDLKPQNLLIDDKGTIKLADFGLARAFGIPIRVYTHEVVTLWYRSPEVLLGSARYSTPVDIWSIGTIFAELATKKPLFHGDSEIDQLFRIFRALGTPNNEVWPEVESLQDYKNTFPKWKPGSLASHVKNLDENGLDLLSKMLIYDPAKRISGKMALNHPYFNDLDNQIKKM
T1 sequence (P14635 whole entry partner): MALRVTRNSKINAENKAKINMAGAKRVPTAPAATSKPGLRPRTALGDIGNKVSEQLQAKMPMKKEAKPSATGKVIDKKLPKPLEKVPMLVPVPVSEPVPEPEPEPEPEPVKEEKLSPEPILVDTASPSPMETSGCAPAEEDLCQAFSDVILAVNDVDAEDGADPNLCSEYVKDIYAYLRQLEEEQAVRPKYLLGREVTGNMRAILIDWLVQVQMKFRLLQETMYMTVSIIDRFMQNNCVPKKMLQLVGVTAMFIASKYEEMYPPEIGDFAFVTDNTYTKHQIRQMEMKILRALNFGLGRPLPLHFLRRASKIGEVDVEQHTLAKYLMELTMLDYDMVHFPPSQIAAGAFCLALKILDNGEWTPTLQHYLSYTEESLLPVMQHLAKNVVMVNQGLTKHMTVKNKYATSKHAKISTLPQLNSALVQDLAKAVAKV
T2 sequence (P35968 807-1356 limits assumed): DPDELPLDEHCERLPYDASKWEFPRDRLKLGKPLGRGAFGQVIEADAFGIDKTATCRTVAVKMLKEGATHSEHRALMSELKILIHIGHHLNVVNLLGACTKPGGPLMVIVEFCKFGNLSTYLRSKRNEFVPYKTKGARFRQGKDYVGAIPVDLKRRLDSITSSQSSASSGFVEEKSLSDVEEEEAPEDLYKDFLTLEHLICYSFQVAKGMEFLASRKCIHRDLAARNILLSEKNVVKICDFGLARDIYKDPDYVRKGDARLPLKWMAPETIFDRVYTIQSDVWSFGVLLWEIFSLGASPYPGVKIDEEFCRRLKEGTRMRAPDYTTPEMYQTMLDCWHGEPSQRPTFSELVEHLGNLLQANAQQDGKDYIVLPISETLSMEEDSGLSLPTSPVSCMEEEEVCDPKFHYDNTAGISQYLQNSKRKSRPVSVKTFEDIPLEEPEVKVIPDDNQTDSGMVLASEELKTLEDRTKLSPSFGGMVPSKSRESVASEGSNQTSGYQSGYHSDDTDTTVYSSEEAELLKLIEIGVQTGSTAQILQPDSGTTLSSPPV

One may read the IC50 as the concentration that inhibits the measured activity by half. A low value points to inhibition by little substance. Turning to `C[C@@H](O)[C@@H](C)Oc1nc(Nc2ccc(Nc3nccc(NCCN(C)C)n3)cc2)ncc1Br` [Example 18], the IC50 worked out at 40 nM in assay [1], 140 nM in assay [2] and 170 nM in assay [3].

In the case of `C[C@@H](O)[C@@H](C)Oc1nc(Nc2ccc(Nc3nccc(OCCO)n3)cc2)ncc1Br` [Example 8, (2R,3R)-3-(5-Bromo-2-{4-[4-(2-hydroxyethoxy)pyrimidin-2-ylamino]-phenylamino}pyrimidin-4-yloxy)butan-2-ol], the results for the half-maximal inhibitory concentration (IC50) in assay [1], in assay [2] and in assay [3] were 28 nM, 44 nM and 30 nM, respectively.

On to `CC(=O)NCCNc1nc(Nc2cccc(Nc3ncc(Br)c(NCCNC(C)=O)n3)c2)ncc1Br` [Example 30], for which the IC50 in assay [2] stood at 21 nM; in assay [3] it was 2000 nM.

Consider `C[C@@H](O)[C@@H](C)Nc1nc(Nc2ccc(Oc3cccnc3)cc2)ncc1Br` [Example 33], for which the half-maximal inhibitory concentration (IC50) in assay [1] is 78 nM; in assay [2], 50 nM; in assay [3] it was 270 nM.

Consider `C[C@@H](O)[C@@H](C)Oc1nc(Nc2ccc(Nc3ncc(Br)cn3)cc2)ncc1Br` [Example 24], for which the IC50 in assay [1] was 110 nM; in assay [2], 240 nM; in assay [3] it was 100 nM.

As to `C[C@@H](O)[C@@H](C)Oc1nc(Nc2ccc(Nc3ncccn3)cc2)ncc1Br` [Example 15], the results for the half-inhibitory concentration (IC50) in assay [1], in assay [2] and in assay [3] were 27 nM, 74 nM and 89 nM, respectively.

In the case of `C[C@@H](O)[C@@H](C)Nc1nc(Nc2ccc(Oc3ncccn3)cc2)ncc1Br` [Example 34], the IC50 was found to be 35 nM in assay [1] and 100 nM in assay [2].

Take `C[C@@H](O)[C@@H](C)Sc1nc(Nc2ccc(Nc3ncc(Cl)c(NCCO)n3)cc2)ncc1Br` [Example 44]: the IC50 was more than 1000 nM in assay [1], 7300 nM in assay [2] and more than 3000 nM in assay [3].

Regarding `C[C@@H](O)[C@@H](C)Oc1nc(Nc2cccc(Nc3ncccn3)c2)ncc1Br` [Example 25], the figures for the IC50 in assay [1], in assay [2] and in assay [3] were 14 nM, 75 nM and 270 nM, respectively.

For `C[C@@H](O)[C@@H](C)Oc1nc(Nc2ccc(Nc3nccc(N(C)C)n3)cc2)ncc1Br` [Example 17], the IC50 was 71 nM in assay [1], 62 nM in assay [2] and 98 nM in assay [3].

Consider `Cc1cnc(Nc2ccc(Nc3ncc(Br)c(O[C@H](C)[C@@H](C)O)n3)cc2)nc1NCCO` [Example 19], for which the 50% inhibitory concentration (IC50) in assay [1] was 51 nM; in assay [2], 100 nM; in assay [3], 290 nM.

Take `CSc1nc(Nc2ccc(Nc3ccccn3)cc2)ncc1Br` [Example 29]: the IC50 in assay [1] is more than 1000 nM; in assay [2], more than 20000 nM; in assay [3], more than 3000 nM.

With `C[C@@H](O)[C@@H](C)Oc1nc(Nc2ccc(Nc3ncc(Cl)c(NCCO)n3)cc2)ncc1Br` [Example 21], the IC50 in assay [1] is 54 nM; in assay [2] it was 73 nM; in assay [3], 91 nM.

For `C[C@@H](O)[C@@H](C)Oc1nc(Nc2ccc(Nc3nccc(N)n3)cc2)ncc1Br` [Example 16], the half-maximal inhibitory concentration (IC50) in assay [1] worked out at 23 nM; in assay [2], 83 nM; in assay [3], 420 nM.

Turning to `COc1ccnc(Nc2ccc(Nc3ncc(Br)c(O[C@H](C)[C@@H](C)O)n3)cc2)n1` [Example 22], the IC50 in assay [1] is 130 nM; in assay [2], 120 nM; in assay [3], 130 nM.

For the compound `C[C@@H](O)[C@@H](C)Nc1nc(Nc2ccc(Sc3nncn3C)cc2)ncc1Br` [Example 39], the IC50 in assay [1] is 11 nM; in assay [2], 41 nM.

Turning to `C[C@@H](O)[C@@H](C)Oc1nc(Nc2cccc(Nc3nccc(OCCO)n3)c2)ncc1Br` [Example 27], the IC50 in assay [1] turned out to be 16 nM; in assay [2], 32 nM; in assay [3] it was 33 nM.
